Source: patent publication US20240366648A1, “NAD-AUGMENTATION THERAPY FOR PARKINSON'S DISEASE” (Vestlandets Innovasjonsselskap AS (VIS), priority 2021, published 2024)

Tested on: cerebral metabolism
Test: FDG-PET metabolic brain network analysis (NRRP/PDRP), phase I trial
Assay type: in vivo, human
Procedure: PET-MRI imaging was performed with a 3T Siemens Biograph mMR scanner, software version VE11P-SPO3. Subjects were administered 200 MBq of 18F Fluorodeoxyglucose (FDG) before being positioned in the scanner. After 31P-MRS spectra had been acquired, an 8-channel Siemens mMR Head coil was used for further MR imaging, which was performed simultaneously with FDG PET. In all subjects, PET acquisition began 25 to 30 minutes after the injection of FDG and lasted 30 minutes. The resulting emission data were reconstructed using Siemens HD-PET algorithm with Siemens HiRes Brain MRAC, with voxel size of 2.3×2.3×5.0 mm^3. PET images were anonymized and archived as DICOM files with a matrix size of 344×344×127 and an isotropic voxel size of 2.09×2.09×2.03 mm^3.
FDG-PET scans were transferred electronically to the Center for Neurosciences at The Feinstein Institutes for Medical Research (Manhasset, NY, USA) and analyzed using automated computing pipelines implemented in MATLAB 7.5 (MathWorks, Natick, MA) using in-house Scan Analysis and Visualization (ScAnVP) software (available at http://feinsteinneuroscience.orq). Images were first pre-processed using Statistical Parametric Mapping (SPM8) software (http://fil.ion.ucl.ac.uk/spm; Wellcome Centre for Human Neuroimaging, London, UK). Of the 30 participants, the baseline scan of one NR subject was excluded on technical grounds. In the remaining subjects, FDG-PET scans acquired at visit 1 and visit 2 were aligned to produce a mean image, which was spatially normalized in standard Montreal Neurological Institute (MNI) anatomic space along with the individual scans from each time point. The normalized images were then smoothed with a 10-mm Gaussian filter in three dimensions to enhance the signal to noise ratio.
For the PET-analyses, the subjects in the NR group were classified based on their cerebral NAD-response, measured by 31P-MRS. Subjects showing increased cerebral NAD levels at visit 2 were termed “MRS-responders,” whereas subjects showing no increase in cerebral NAD were termed “MRS non-responders”.
To identify an NR-related metabolic pattern (NRRP), we analyzed paired metabolic scan data from the 10 MRS responders in the NR group (ATP-beta; NAD-total; ATP-alpha; ATP-gamma; PCr (Phosphocreatine); MP (membrane phospholipids); GPC (glycerophosphocholine); GPE (glycerophosphoethanolamine); Pi (inorganic phosphate); Pc (phosphocholine); PE (phosphoethanolamine); Total NAD/PCr; Total NAD/ATP-alpha) using ordinal trends/canonical variates analysis (OrT/CVA), a supervised form of principal component analysis (PCA) (Habeck C, Krakauer J W, Ghez C, Sackeim H A, Eidelberg D, Stern Y et al. A new approach to spatial covariance modeling of functional brain imaging data: ordinal trend analysis. Neural computation 2005; 17: 1602-1645).
This multivariate approach is designed to detect and quantify regional covariance patterns (i.e., metabolic networks) for which expression values (i.e., subject scores) increase or decrease with treatment in all or most of the subjects (Niethammer M, Tang C C, Vo A, Nguyen N, Spetsieris P, Dhawan V et al. Gene therapy reduces Parkinson's disease symptoms by reorganizing functional brain connectivity. Science translational medicine 2018; 10; Ko J H, Feigin A, Mattis P J, Tang C C, Ma Y, Dhawan V et al. Network modulation following sham surgery in Parkinson's disease. The Journal of clinical investigation 2014; 124: 3656-3666). […] Likewise, the reliability of the voxel loadings (i.e., region weights) on the resulting network topography was assessed using bootstrap resampling procedures (Mure H, Hirano S, Tang C C, Isaias I U, Antonini A, Ma Y et al. Parkinson's disease tremor—related metabolic network: characterization, progression, and treatment effects. Neuroimage 2011; 54: 1244-1253; Habeck C, Stern Y. Multivariate data analysis for neuroimaging data: overview and application to Alzheimer's disease. Cell biochemistry and biophysics 2010; 58: 53-67). […]

NC(=O)c1ccc[n+]([C@@H]2O[C@H](CO)[C@@H](O)[C@H]2O)c1 [NR, nicotinamide riboside]
NR-related metabolic pattern (NRRP) topography (10 MRS responders, OrT/CVA, PC1): bilateral metabolic reductions in the caudate and putamen, extending into the adjacent globus pallidus, and in the thalamus | Zmax, reduced metabolic activity as part of the NRRP network (Anterior Cingulate (left), BA 32, MNI −4,44,18): 2.2 | Zmax, reduced metabolic activity as part of the NRRP network (Anterior Cingulate (right), BA 24, MNI 4,8,48): 2.3 | Zmax, reduced metabolic activity as part of the NRRP network (Anterior Cingulate (right), BA 32, MNI 4,46,−8): 2.6 | Zmax, reduced metabolic activity as part of the NRRP network (Lentiform Nucleus (left), Putamen, MNI −20,10,−8): 3.5 | Zmax, reduced metabolic activity as part of the NRRP network (Lentiform Nucleus (left), Putamen, MNI −28,−2,−2): 3.3 | Zmax, reduced metabolic activity as part of the NRRP network (Lentiform Nucleus (right), Putamen, MNI 22,10,−8): 3.9 | subjects with increased NRRP expression (MRS responders, p=0.018 permutation test): 8 of 10 | Zmax, reduced metabolic activity as part of the NRRP network (Middle Frontal Gyrus (left), BA 8, MNI −26,30,42): 1.9 | ordinal trend in NRRP expression (NR group as a whole, p=0.027 permutation test): remained significant | correlation (r) of changes in NRRP expression with changes in UPDRS motor ratings, after excluding one data point (NR group, excluding greatest increase in UPDRS motor score, p=0.048): −0.556 | correlation (r) of changes in NRRP expression with changes in UPDRS motor ratings (NR group, p=0.026): −0.59 | correlation of PDRP changes with clinical outcome (NR group, p=0.73): no correlation | Zmax, reduced metabolic activity as part of the NRRP network (Posterior Cingulate (bilateral), BA 31, MNI 0,−30,36): 3.5 | Zmax, reduced metabolic activity as part of the NRRP network (Precuneus (left), BA 7, MNI −6,−72,40): 2.6 | Zmax, reduced metabolic activity as part of the NRRP network (Prefrontal Cortex (right), BA 9, MNI 44,16,30): 3.0 | Zmax, reduced metabolic activity as part of the NRRP network (Superior Frontal Gyrus (left), BA 9, MNI −32,44,28): 2.5 | Zmax, reduced metabolic activity as part of the NRRP network (Superior Frontal Gyrus (left), BA 10, MNI −28,56,6): 2.5 | Zmax, reduced metabolic activity as part of the NRRP network (Thalamus (left), Anterior, MNI −10,−22,4): 2.5 | Zmax, reduced metabolic activity as part of the NRRP network (Thalamus (right), Medial Dorsal, MNI 8,−18,4): 3.0
